According to patent US20260258378A1, “GLYCOSYLTRANSFERASE ENGINEERING FOR CHEMOENZYMATIC TOTAL SYNTHESIS OF GANGLIOSIDES” (priority 2022, published 2026):

Legend:
Assay type in all cases: biochemical, Campylobacter jejuni
MBP-CjCgtBΔ30-His6 [1] = experiment: Effects of divalent metal cations, EDTA and DTT on enzyme activity; conditions: pH 7.5, Tris-HCl buffer (100 mM); DTT 10 mM
Procedure: (§1) The enzymatic assays were carried out in duplicate at 37° C. for 10 minutes in a reaction mixture (10 μL) containing the donor substrate (1.5 mM, UDP-GalNAc for MBP-Δ15CjCgtA-His6 and UDP-Gal for MBP-CjCgtBΔ30-His6), an acceptor substrate (1 mM, GM3βNHCbz for MBP-Δ15CjCgtA-His6 and GM2βNHCbz for MBP-CjCgtBΔ30-His6), Tris-HCl buffer (100 mM, pH 7.5), a metal cation (10 mM, MgCl2 for MBP-Δ15CjCgtA-His6 and MnCl2 for MBP-CjCgtBΔ30-His6), and the enzyme (0.32 μM for MBP-Δ15CjCgtA-His6 and 4 μM for MBP-CjCgtBΔ30-His6). The reactions were stopped by adding 10 μL of ice-cold methanol followed by incubation of the mixture on ice for 20 minutes and centrifugation at 16200 g for 5 minutes. The supernatant (about 20 μL) was transferred into another tube containing ddH2O (40 μL) and the resulting mixture was analyzed by liquid chromatography-mass spectrometry (LC-MS) (SHIMADZU LCMS-2020 system with electrospray ionization) for confirming the product and ultra-high-performance liquid chromatography (UHPLC) (monitored at 215 nm on an Agilent Infinity 1290 II HPLC system equipped with 1260 Infinity II Diode Array Detector WR) for reaction yield determination. The column used for the UHPLC analysis was Dionex™ CarboPac™ PA-100 (1.8 μm particle, 4×250 mm, Thermo Scientific, CA) for both glycosyltransferases. A gradient flow (100% water to 70% water/30% 1 M NaCl in 16 min) was used for analyzing the reactions catalyzed by MBP-Δ15CjCgtA-His6 and a different gradient flow (100% water to 75% water/[…] in 16 min) was used for analyzing MBP-CjCgtBΔ30-His6-catalyzed reactions. The flow rate was 0.75 mL min^−1.
(§2) The effect of various metal ions, the chelating reagent EDTA, and the reducing reagent DTT on the enzyme activity of MBP-Δ15CjCgtA-His6 and MBP-CjCgtBΔ30-His6 were examined at pH 7.5 in a Tris-HCl buffer (100 mM). Reactions without metal ions were used as controls.

MBP-Δ15CjCgtA-His6 [2] = experiment: as above; conditions: pH 7.5, Tris-HCl buffer (100 mM); DTT 10 mM
Procedure: as §1, §2

MBP-Δ15CjCgtA-His6 [3] = experiment: Effects of detergents on MBP-Δ15CjCgtA-His6-catalyzed OPME formation of GM2βSph; conditions: glycosphingosine acceptor, HRMS; sodium cholate 8-10 mM; Triton X-100 10 mM
Procedure: Assays were carried out at 30° C. for 12 hours in a total volume of 10 μL in Tris-HCl buffer (100 mM, pH 7.5) containing a GM3βSph (10 mM), GalNAc (15 mM), ATP (15 mM), UTP (15 mM), MgCl2 (20 mM), BLNahK (2 μg), PmGlmU (2 μg), MBP-Δ15CjCgtA-His6 (3 μg), PmPpA (1 μg), and various concentrations (0, 1, 2, 4, 5, 8, 10, 15, 18 mM) of sodium cholate or Triton X-100 (1, 5, 10, 15 mM). Reactions were quenched by addition of 10 μL of pre-chilled ethanol and the mixtures were incubated at 0° C. for 30 min, centrifuged, and the supernatant were analyzed by high resolution mass spectrometry (HRMS).
(§3) Glycosphingosines are much weaker acceptor substrates than the corresponding glycans for both CjCgtA and CjCgtB. This property made it prohibitive for synthesizing GM2βSph and GM1βSph in large-scales using the OPME strategy. […] The effects of these detergents in influencing the activities of both MBP-Δ15CjCgtA-His6 and MBP-CjCgtBΔ30-His6 in using glycosphingosine acceptor substrates and the reactions were analyzed by high-resolution mass spectrometry (HRMS).

MBP-CjCgtBΔ30-His6 [4] = experiment: Effects of detergents on MBP-CjCgtBΔ30-His6 with glycosphingosine acceptor substrates; conditions: HRMS, sodium cholate 8-10 mM, Triton X-100 10 mM
Procedure: as §3

Compound: O[C@H](CS)[C@H](O)CS (racemic) [dithiothreitol]
- effect on the enzyme activity of MBP-CjCgtBΔ30-His6 (MBP-CjCgtBΔ30-His6 [1]): improved the activity
- effect on the enzyme activity of MBP-Δ15CjCgtA-His6 (MBP-Δ15CjCgtA-His6 [2]): deactivated

Compound: [Ca+2] [Ca^2+]
- effect on the enzyme activity of MBP-CjCgtBΔ30-His6 (MBP-CjCgtBΔ30-His6 [1]): not
- effect on the enzyme activity of MBP-Δ15CjCgtA-His6 (MBP-Δ15CjCgtA-His6 [2]): suitable

Compound: [Mg+2] [Mg^2+]
- effect on the enzyme activity of MBP-CjCgtBΔ30-His6 (MBP-CjCgtBΔ30-His6 [1]): less effective
- effect on the enzyme activity of MBP-Δ15CjCgtA-His6 (MBP-Δ15CjCgtA-His6 [2]): equally effective

Compound: [Mn+2] [Mn^2+]
- effect on the enzyme activity of MBP-CjCgtBΔ30-His6 (MBP-CjCgtBΔ30-His6 [1]): preferred cation

Compound: C[C@H](CCC(=O)[O-])[C@H]1CC[C@H]2[C@@H]3[C@H](O)C[C@@H]4C[C@H](O)CC[C@]4(C)[C@H]3C[C@H](O)[C@]12C.[Na+] [sodium cholate]
- effect of detergent on reaction yield / enzyme activity (MBP-Δ15CjCgtA-His6 [3]): greatly enhanced
- effect of detergent on reaction yield / enzyme activity (MBP-CjCgtBΔ30-His6 [4]): greatly enhanced

Compound: Triton X-100
- effect of detergent on reaction yield / enzyme activity (MBP-Δ15CjCgtA-His6 [3]): improved
- effect of detergent on reaction yield / enzyme activity (MBP-CjCgtBΔ30-His6 [4]): improved
